In brackets after ≈: the same amount, converted by molar mass. Like-named read-outs stand apart in the source and are kept apart here. Numbered stars: 1 amine (or outer) side, 2 acyl side, 3 side chain; on linkers, the order of the positions; unused ones are H or OH. Square brackets hold non-standard residues; d marks the D form. Peptide text beside a SMILES is read from it. * marks the point of attachment. Dolaproine = CO[C@@H]([C@@H]1CCCN1)[C@@H](C)C(=O)O; Dil = CC[C@H](C)[C@H](NC)[C@@H](CC(=O)O)OC; PABC = O=C(OCc1ccc(N[*:1])cc1)[*:2]; DBCO = C1#Cc2ccccc2N(*)Cc2ccccc21; X1 = C[C@@H](N*)[C@@H](O)c1ccccc1; Cit = NC(=O)NCCC[C@H](N)C(=O)O; PEG4 = NCCOCCOCCOCCOCCC(=O)O; Suc = O=C(CCC(=O)[*:2])[*:1]; NMeV = CN[C@H](C(=O)O)C(C)C
Columns and labels:
[1] = molecular target: Cathepsin B (Homo sapiens, UniProt P07858); experiment: Cathepsin B cleavage rate of linker-payloads (Example 66); format: biochemical; details: for CapB (%): pH 5.0, 37° C.
Description: Step 1: Preparation of Cathepsin B buffer: 0.1 M NaOAc/0.01M DTT (pH5.0) Dissolve 8.3 g/L NaOAc, 1.54 g/L DTT in deionized water. Adjust pH to 5.0 with HCl/sodium hydroxide.
Step 2: Test Cleavage Rate
• 1. Prepare 25 μM of testing sample: To a 2-mL-tube was added 0.5 mg of testing sample, followed by the addition of 0.2 mL of DMSO. The solution was added dropwise into 0.8 mL of 0.1 M NaOAc/0.01 M DTT buffer. The obtained mixtures were sonicated for 5 minutes to obtain clear and colorless solutions. The pH value of the solution was around 5 according to pH test strip. • 2. Preheat assay buffer: 0.1 M NaOAc/0.01 M DTT (pH 5.0) • 3. Spiking solutions for test compounds: 25 μM Spiking solutions for test compounds: Add 2 μL of 5 mM stock solution into 398 μL of 0.1 M NaOAc/0.01 M DTT buffer (pH 5.0). • 4. Prepare 0.47 μg/μL Cathepsin B in 50 mM NaOAc/1 mM EDTA (pH 5.0). Put on ice. • 5. Without CA074 samples: Add 4 μL of 0.47 μg/μL Cathepsin B into 196 μL of 25 μM Spiking solutions (from step 2), incubate the tubes at 37° C. • 6. With CA074 samples: Add 4 μL of 0.47 μg/μL Cathepsin B with 4 μL of 10 mM Inhibitor (CA074) into 196 μL of 25 μM Spiking solutions (from step 2), incubate the tubes. • 7. After quenching, shake the plate and centrifuge them at 14000 rpm. • 8. Transfer 50 μL of the supernatant from each well into a 96-well sample plate containing 50 μL of ultra pure water (Millipore, ZMQS50F01) for LC/MS analysis. Step 3: Test reference compounds: • 9. Preheat assay buffer: 100 mM Na/K phosphate, pH 6.0, with 1.33 mM EDTA and 2 mM DTT. • 10. Prepare 0.024 μg/μL Cathepsin B: Add 1 μL of 0.47 μg/μL Cathepsin B stock into 19 μL of assay buffer (from step 11). • 11. Add 2 μL of 0.024 μg/μL Cathepsin B (from step 12) to a opaque 96-well plate. • 12. Add 96 μL of assay buffer to each sample. • 13. Add 2 μL of the 10 mM substrate Z-RR-MNA (200 μM final concentration). • 14. For negative control (With inhibitor), add 2 μL of 10 mM Inhibitor (CA074): Immediately read the samples in a kinetic mode at excitation of 340 nm/emission of 425 nm (Read the plate every 30 Second for 3 min). Step 4: Stability of Cathepsin B in incubation samples: • 15. Take 5 μL of incubation samples into 93 μL of assay buffer (from step 11), and then add 2 μL of 10 mM substrate (Z-RR-MNA). • 16. Incubate the samples at 37° C. for 2 min. • 17. Read the samples at excitation of 340 nm/emission of 425 nm.

[2] = Solubility of linker-payloads (LC-MS standard curve, saturated solution); format: physicochemical; details: for solubility at 10 min: thermodynamic from solid
Description: The following test assays the solubility of the linker-payloads with a cyclodextrin moiety and the linker-payloads without a cyclodextrin moiety.
The test compounds were dissolved in DMSO to build a standard curve using LC-MS method A or B. The test sample was dissolved in water and sonicated for 10 minutes, and then centrifuged. The upper clear solution was analyzed using the same method A or B and the solubility was calculated based on its peak area.
Detailed test procedures were as follows: • 1. […] 0.05 mg of compound was suspended in water (1 mL) and sonicated for 10 minutes. After centrifugation, the clear solution above was collected to provide the saturated sample solution. • 3. All the standard solutions A, B, C, D, E and sample solution were analyzed by LCMS (using the same method and same injection volume) to obtain the peak areas. • 4. Calculate the standard curve according to the data of A-D (X=concentration, Y=peak areas). • 5. Calculate to obtain the concentration of saturated sample solution according to the functions obtained above.

[3] = water, aqueous, read-out: Aq. Solubility
[4] = water, water, read-out: Solubility

SMILES	CapB (%) ([1]; Cathepsin B cleavage rate)	solubility at 10 min [2, 3]	solubility at 10 min [2, 4]	solubility at 10 min ([2]; water, Solubility)	also measured
CC[C@H](C)[C@@H]([C@@H](CC(=O)N1CCC[C@H]1[C@H](OC)[C@@H](C)C(=O)N[C@H](C)[C@@H](O)c1ccccc1)OC)N(C)C(=O)[C@@H](NC(=O)[C@H](C(C)C)N(C)C(=O)OCc1ccc(NC(=O)[C@H](CCCNC(N)=O)NC(=O)[C@@H](NC(=O)CCOCCOCCOCCOCCNC(=O)CCC(=O)N2Cc3ccccc3C#Cc3ccccc32)C(C)C)cc1)C(C)C [Ex36] ({DBCO-Suc-PEG4}-V[Cit][PABC][NMeV]V[Dil][Dolaproine]-X1)	% % (60< % % ≤70 CapB (%))	< 100 µg/mL	< 100 µg/mL	–	–
CC[C@H](C)[C@@H]([C@@H](CC(=O)N1CCC[C@H]1[C@H](OC)[C@@H](C)C(=O)N[C@H](C)[C@@H](O)c1ccccc1)OC)N(C)C(=O)[C@@H](NC(=O)[C@H](C(C)C)N(C)C(=O)OCc1ccc(NC(=O)[C@H](CCCNC(N)=O)NC(=O)[C@@H](NC(=O)[C@@H](CCCCNC(=O)COC2CCCCCc3c2nnn3CC2OC3OC4C(CO)OC(OC5C(CO)OC(OC6C(CO)OC(OC7C(CO)OC(OC8C(CO)OC(OC2C(O)C3O)C(O)C8O)C(O)C7O)C(O)C6O)C(O)C5O)C(O)C4O)NC(=O)CCOCCOCCOCCOCCNC(=O)CCC(=O)N2Cc3ccccc3C#Cc3ccccc32)C(C)C)cc1)C(C)C (stereo partly drawn) [Ex41]	% % (70< % % ≤80 CapB (%))	140 µg/mL (≈ 47.5 µM)	250 µg/mL (≈ 84.8 µM)	–	–
CC[C@H](C)[C@@H]([C@@H](CC(=O)N1CCC[C@H]1[C@H](OC)[C@@H](C)C(=O)N[C@H](C)[C@@H](O)c1ccccc1)OC)N(C)C(=O)[C@@H](NC(=O)[C@H](C(C)C)N(C)C(=O)OCc1ccc(NC(=O)[C@H](CCCNC(N)=O)NC(=O)[C@@H](NC(=O)[C@@H](CCCCNC(=O)COC2CCCCCc3c2nnn3CC2OC3OC4C(CO)OC(OC5C(CO)OC(OC6C(CO)OC(OC7C(CO)OC(OC8C(CO)OC(OC2C(O)C3O)C(O)C8O)C(O)C7O)C(O)C6O)C(O)C5O)C(O)C4O)NC(=O)CCOCCOCCOCCOCCNC(=O)OC[C@@H]2[C@@H]3CCC#CCC[C@@H]32)C(C)C)cc1)C(C)C (stereo partly drawn) [Ex42]	% % (60< % % ≤70 CapB (%))	> 1000 µg/mL	1000 µg/mL (≈ 352 µM)	–	–
CCC[C@@H]1O[C@@H]2C[C@H]3[C@@H]4CCC5=CC(=O)C=C[C@]5(C)[C@H]4[C@@H](O)C[C@]3(C)[C@]2(C(=O)COc2ccc(NC(=O)[C@H](C)NC(=O)[C@@H](NC(=O)CCOCCOCCOCCOCCNC(=O)CCC(=O)N3Cc4ccccc4C#Cc4ccccc43)C(C)C)cc2)O1 [Ex45, 1-(4-{2-azatricyclo[10.4.0.0^4,9]hexadeca-1(12),4(9),5,7,13,15-hexaen-10-yn-2-yl}-4-oxobutanamido)-N-[(1S)-1-{[(1S)-1-[(4-{2-[(1S,2S,4R,6R,8S,9S,11 S,12S,13R)-11-hydroxy-9,13-dimethyl-16-oxo-6-propyl-5,7-dioxapentacyclo[10.8.0.0^2,9.0^4,8.0^13,18]icosa-14,17-dien-8-yl]-2-oxoethoxy}phenyl)carbamoyl]ethyl]carbamoyl}-2-methylpropyl]-3,6,9,12-tetraoxapentadecan-15-amide]	% (% ≤50 CapB (%))	< 100 µg/mL	< 100 µg/mL	–	–
CCC[C@@H]1O[C@@H]2C[C@H]3[C@@H]4CCC5=CC(=O)C=C[C@]5(C)[C@H]4[C@@H](O)C[C@]3(C)[C@]2(C(=O)COc2ccc(NC(=O)[C@H](C)NC(=O)[C@@H](NC(=O)[C@@H](CCCCNC(=O)COC3CCCCCc4c3nnn4CC3OC4OC5C(CO)OC(OC6C(CO)OC(OC7C(CO)OC(OC8C(CO)OC(OC9C(CO)OC(OC3C(O)C4O)C(O)C9O)C(O)C8O)C(O)C7O)C(O)C6O)C(O)C5O)NC(=O)CCOCCOCCOCCOCCNC(=O)CCC(=O)N3Cc4ccccc4C#Cc4ccccc43)C(C)C)cc2)O1 (stereo partly drawn) [Ex47]	% (% ≤50 CapB (%))	< 100 µg/mL	–	–	Cathepsin B cleavage rate [1]: 14%; aqueous solubility (in words) ([2]; water): below detectable levels
CC(C)[C@H](NC(=O)[C@@H](CCCCNC(=O)CCOCCOCCOCCOCCNC(=O)COC1CCCCCc2nnn(CC3OC4OC5C(CO)OC(OC6C(CO)OC(OC7C(CO)OC(OC8C(CO)OC(OC9C(CO)OC(OC3C(O)C4O)C(O)C9O)C(O)C8O)C(O)C7O)C(O)C6O)C(O)C5O)c21)NC(=O)CCOCCOCCOCCOCCNC(=O)CCC(=O)N1Cc2ccccc2C#Cc2ccccc21)C(=O)N[C@@H](CCCNC(N)=O)C(=O)Nc1ccc(COC(=O)NCCOc2ccc3c(c2)[C@@]2(C)CCC[C@](C)(C(=O)NC(=O)[C@@]4(C)CCC[C@]5(C)c6cc(O)ccc6CC[C@@H]45)[C@@H]2CC3)cc1 (stereo partly drawn) [Ex50]	% (% ≤50 CapB (%))	–	–	330 µg/mL (≈ 108 µM)	–
CC(C)[C@H](NC(=O)[C@@H](CCCCNC(=O)CCOCCOCCOCCOCCNC(=O)COC1CCCCCc2nnn(CC3OC4OC5C(CO)OC(OC6C(CO)OC(OC7C(CO)OC(OC8C(CO)OC(OC9C(CO)OC(OC3C(O)C4O)C(O)C9O)C(O)C8O)C(O)C7O)C(O)C6O)C(O)C5O)c21)NC(=O)CCOCCOCCOCCOCCNC(=O)CCC(=O)N1Cc2ccccc2C#Cc2ccccc21)C(=O)N[C@@H](C)C(=O)Nc1ccc2c(c1)[C@@]1(C)CCC[C@](C)(C(=O)NC(=O)[C@@]3(C)CCC[C@]4(C)c5cc(O)ccc5CC[C@@H]34)[C@@H]1CC2 (stereo partly drawn) [Ex53, DIBAC-suc-PEG4-D-Lys(PEG4-COT-CD)-Val-Ala-1d]	% (50< % ≤60 CapB (%))	–	–	180 µg/mL (≈ 65 µM)	solubility at 10 min ([2]; water, Aq. Solubility (mg/mL)): 330 µg/mL (≈ 119 µM)
CCCC1O[C@@H]2C[C@H]3[C@@H]4C[C@H](F)C5=CC(=O)C=C[C@]5(C)[C@@]4(F)[C@@H](O)C[C@]3(C)[C@]2(C(=O)COc2ccc(NC(=O)OCc3ccc(NC(=O)[C@H](CCCNC(N)=O)NC(=O)[C@@H](NC(=O)CCOCCOCCOCCOCCNC(=O)CCC(=O)N4Cc5ccccc5C#Cc5ccccc54)C(C)C)cc3)cc2)O1 (stereo partly drawn) [Ex61, DIBAC-suc-PEG4-vcPAB-1i]	% (% ≤50 CapB (%))	–	–	< 10 µg/mL	capB ([1]; Cathepsin B cleavage rate, Table 8A): <5%; Solubility ([2]; 10 min): 0.01 mg/ mL mg/mL; solubility at 10 min ([2]; water, Aq. Solubility (mg/mL)): 10 µg/mL (≈ 6.68 µM)
CCCC1O[C@@H]2C[C@H]3[C@@H]4C[C@H](F)C5=CC(=O)C=C[C@]5(C)[C@@]4(F)[C@@H](O)C[C@]3(C)[C@]2(C(=O)COc2ccc(NC(=O)[C@H](C)NC(=O)[C@@H](NC(=O)[C@@H](CCCCNC(=O)COC3CCCCCc4c3nnn4CC3OC4OC5C(CO)OC(OC6C(CO)OC(OC7C(CO)OC(OC8C(CO)OC(OC9C(CO)OC(OC3C(O)C4O)C(O)C9O)C(O)C8O)C(O)C7O)C(O)C6O)C(O)C5O)NC(=O)CCOCCOCCOCCOCCNC(=O)CCC(=O)N3Cc4ccccc4C#Cc4ccccc43)C(C)C)cc2)O1 (stereo partly drawn) [Ex63, DIBAC-suc-PEG4-dLys(COT-CD)-Val-Ala-1i]	% (% ≤50 CapB (%))	–	–	–	–

Source: US12589101B2, “Cyclodextrin protein drug conjugates” (Regeneron Pharmaceuticals, Inc., priority 2017, dated 2026)
